Pest or weed control data for 17 compounds are collected here from US9096560B2, “5-heterocyclylalkyl-3-hydroxy-2-phenylcyclopent-2-enones as herbicides” (Syngenta Limited, priority 2008, dated 2015).

What all share (type): in vivo
The subject of assay [1] is Alopecurus myosuroides (ALOMY). In words: Example B post-emergence herbicidal test, ALOMY. The following applies: Alopecurus myosuroides, 312 h, rate 250 g/ha, evaluated after 13 days, scale 0-100, read-out: Post-emergence activity ALOMY (100=total damage to plant; 0=no damage to plant). A digest of the protocol: (§1)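 Damage was rated visually 13 days after treatment, where 100 meant total plant damage and 0 none. Treatment was a spray of aqueous solution (acetone/water 50:50, 0.5% Tween 20) applied to plants cultivated 8 days from seed under controlled glasshouse conditions.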

In assay [2] the test system is Lolium perenne (LOLPE). Briefly: Example B pre-emergence herbicidal test, LOLPE. The following applies: Lolium perenne, 312 h, rate 250 g/ha, evaluated after 13 days, 100=total damage to plant, 0=no damage to plant. A digest of the protocol:
(§2)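 After sowing in standard soil, pots spent a day in the glasshouse (24/16° C, 14 h photoperiod, 65% humidity) before spraying with compound in acetone/water 50:50 with 0.5% Tween 20. Watering followed twice a day, and plants were evaluated 13 days on, with 100 meaning complete damage.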

The subject of assay [3] is Lolium perenne (LOLPE). In words: Example B post-emergence herbicidal test, LOLPE. The following applies: Lolium perenne, 312 h, rate 250 g/ha, evaluated after 13 days, scale 0-100, read-out: Post-emergence activity LOLPE (100=total damage to plant; 0=no damage to plant). A digest of the protocol:
as §1

Assay [4] deals with Echinochloa crus-galli (ECHCG). In words: Example B post-emergence herbicidal test, ECHCG. The following applies: Echinochloa crus-galli, 312 h, rate 250 g/ha, evaluated after 13 days, scale 0-100, read-out: Post-emergence activity ECHCG (100=total damage to plant; 0=no damage to plant). The essentials: as §1
Assay [5] concerns Alopecurus myosuroides (ALOMY). Briefly: Example B pre-emergence herbicidal test, ALOMY. Particulars: Alopecurus myosuroides, 312 h, rate 250 g/ha, evaluated after 13 days, 100=total damage to plant, 0=no damage to plant. A digest of the protocol:
as §2

Assay [6] has as its system Echinochloa crus-galli (ECHCG). Briefly: Example B pre-emergence herbicidal test, ECHCG. The following applies: Echinochloa crus-galli, 312 h, rate 250 g/ha, evaluated after 13 days, 100=total damage to plant, 0=no damage to plant. The essentials:
as §2

The test system of assay [7] is Avena fatua (AVEFA). In words: Example B pre-emergence herbicidal test, AVEFA. The following applies: Avena fatua, 312 h, rate 250 g/ha, evaluated after 13 days, 100=total damage to plant, 0=no damage to plant. A digest of the protocol:
as §2

Assay [8] concerns Avena fatua (AVEFA). Briefly: Example B post-emergence herbicidal test, AVEFA. The following applies: Avena fatua, 312 h, rate 250 g/ha, evaluated after 13 days, scale 0-100, read-out: Post-emergence activity AVEFA (100=total damage to plant; 0=no damage to plant). A digest of the protocol:
as §1

As for `Cc1cc(C)c(C2C(=O)CC(CC3CCN(S(=O)(=O)c4ccc(Cl)cc4)CC3)C2=O)c(C)c1` (stereo not shown) [Compound T92], the pest or weed control at 250 g/ha in assay [1] was 30%; with Lolium perenne (LOLPE) [2] it was 30%; in the assay on Lolium perenne (LOLPE) [3], 20%; in assay [4], 40%; in assay [5], 30%; in assay [6] it was 40%. For the same compound, the pest or weed control at 250 g/ha in the assay on Avena fatua (AVEFA) [7] worked out at 10%; with Avena fatua (AVEFA) [8], 60%.
In the case of `Cc1cc(C)c(C2=C(OC(=O)c3cccs3)CC(CC3CCN(C(=O)c4cccs4)C3)C2=O)c(C)c1` (stereo not shown) [Compound P61], the pest or weed control at 250 g/ha in assay [1] amounted to 90%; in the assay on Lolium perenne (LOLPE) [2], 90%; in the assay with Lolium perenne (LOLPE) [3], 90%; in assay [4], 90%; in assay [5], 50%; in assay [6], 80%. Further, the figures for the pest or weed control at 250 g/ha in the assay with Avena fatua (AVEFA) [7] and in the assay on Avena fatua (AVEFA) [8] were 30% and 90%, respectively.
As to `Cc1cc(C)c(C2C(=O)C/C(=C\C3CCN(C(=O)OC(C)(C)C)CC3)C2=O)c(C)c1` (stereo not shown) [Compound T54], the pest or weed control at 250 g/ha in assay [1] stood at 80%; in the assay with Lolium perenne (LOLPE) [2] it was 100%; in the assay with Lolium perenne (LOLPE) [3], 70%; in assay [4], 80%; in assay [5], 80%; in assay [6], 100%. Besides, the pest or weed control at 250 g/ha with Avena fatua (AVEFA) [7] was determined as 50%; with Avena fatua (AVEFA) [8], 80%.
Consider `Cc1cc(C)c(C2C(=O)C/C(=C\C3CCN(Cc4ccccc4)CC3)C2=O)c(C)c1` (stereo not shown) [Compound T13], for which the pest or weed control at 250 g/ha in assay [1] worked out at 10%; with Lolium perenne (LOLPE) [2], 30%; in the assay on Lolium perenne (LOLPE) [3], 30%; in assay [4], 40%; in assay [5], 30%; in assay [6] it was 10%. The pest or weed control at 250 g/ha in the assay on Avena fatua (AVEFA) [7] and in the assay with Avena fatua (AVEFA) [8] was 0% each time.
As to `CON1CCC(CC2CC(OC(=O)c3ccccc3)=C(c3c(C)cc(C)cc3C)C2=O)CC1` (stereo not shown) [Compound P55], the pest or weed control at 250 g/ha in assay [1] amounted to 90%; in the assay on Lolium perenne (LOLPE) [2], 100%; in the assay on Lolium perenne (LOLPE) [3], 100%; in assay [4] it was 100%; in assay [5], 100%; in assay [6], 100%. Also, the pest or weed control at 250 g/ha in the assay on Avena fatua (AVEFA) [7] was 90%; with Avena fatua (AVEFA) [8], 100%.
On to `Cc1cc(C)c(C2C(=O)C/C(=C\C3CCSCC3)C2=O)c(C)c1` (stereo not shown) [Compound T9], for which the pest or weed control at 250 g/ha in assay [1] worked out at 60%; in the assay with Lolium perenne (LOLPE) [2], 60%; in the assay on Lolium perenne (LOLPE) [3], 80%; in assay [4], 80%; in assay [5], 20%; in assay [6] it was 20%. For the same compound, the pest or weed control at 250 g/ha with Avena fatua (AVEFA) [7] was found to be 0%; in the assay on Avena fatua (AVEFA) [8], 30%.
Regarding `Cc1ccc(C(=O)N2CCC(CC3CC(=O)C(c4c(C)cc(C)cc4C)C3=O)CC2)cc1` (stereo not shown) [Compound T78], the pest or weed control at 250 g/ha in assay [1] came out at 40%; with Lolium perenne (LOLPE) [2], 30%; in the assay with Lolium perenne (LOLPE) [3], 50%; in assay [4], 70%; in assay [5], 20%; in assay [6], 30%. The results for the pest or weed control at 250 g/ha in the assay on Avena fatua (AVEFA) [7] and with Avena fatua (AVEFA) [8] were 0% and 40%, respectively.
As for `Cc1cc(C)c(C2C(=O)CC(CC3CCN(C(=O)C(F)(F)C(F)F)C3)C2=O)c(C)c1` (stereo not shown) [Compound T131], the pest or weed control at 250 g/ha was found to be 90% in assay [1]; 90% in the assay with Lolium perenne (LOLPE) [2]; 100% in the assay with Lolium perenne (LOLPE) [3]; 90% in assay [4]; 70% in assay [5]; 100% in assay [6]. In addition, the results for the pest or weed control at 250 g/ha in the assay on Avena fatua (AVEFA) [7] and in the assay with Avena fatua (AVEFA) [8] were 70% and 90%, respectively.
As for `Cc1cc(C)c(C2=C(OC(=O)OCC(C)(C)C)CC(CC3CCOC3)C2=O)c(C)c1` (stereo not shown) [Compound P24], the pest or weed control at 250 g/ha in assay [1] was 90%; with Lolium perenne (LOLPE) [2] it was 100%; with Lolium perenne (LOLPE) [3], 100%; in assay [4], 90%; in assay [5], 100%; in assay [6] it was 90%. The pest or weed control at 250 g/ha in the assay with Avena fatua (AVEFA) [7] and with Avena fatua (AVEFA) [8] was 90% each time.
Regarding `Cc1cc(C)c(C2C(=O)CC(CC3OCCO3)C2=O)c(C)c1` (stereo not shown) [Compound T130], the pest or weed control at 250 g/ha in assay [1] stood at 60%; with Lolium perenne (LOLPE) [2], 100%; in the assay on Lolium perenne (LOLPE) [3], 90%; in assay [4], 60%; in assay [5] it was 70%; in assay [6], 30%. For the same compound, the pest or weed control at 250 g/ha came out at 10% in the assay with Avena fatua (AVEFA) [7] and 70% in the assay with Avena fatua (AVEFA) [8].
`Cc1cc(C)c(C2=C(OS(C)(=O)=O)C/C(=C\C3CCN(S(C)(=O)=O)C3)C2=O)c(C)c1` (stereo not shown) [Compound P46]: the pest or weed control at 250 g/ha in assay [1] was 90%; in the assay on Lolium perenne (LOLPE) [2], 90%; in the assay with Lolium perenne (LOLPE) [3], 80%; in assay [4], 70%; in assay [5], 70%; in assay [6], 100%. Moreover, the results for the pest or weed control at 250 g/ha in the assay with Avena fatua (AVEFA) [7] and in the assay on Avena fatua (AVEFA) [8] were 60% and 90%, respectively.
For `Cc1cc(C)c(C2=C(OC(=O)C(C)(C)C)CC(CC3CCN(C(=O)C(C)(C)C)C3)C2=O)c(C)c1` (stereo not shown) [Compound P59], the pest or weed control at 250 g/ha in assay [1] stood at 90%; with Lolium perenne (LOLPE) [2], 80%; with Lolium perenne (LOLPE) [3] it was 80%; in assay [4] it was 70%; in assay [5], 50%; in assay [6], 70%. Further, the figures for the pest or weed control at 250 g/ha with Avena fatua (AVEFA) [7] and with Avena fatua (AVEFA) [8] were 30% and 80%, respectively.
For `CCSC(=O)OC1=C(c2c(C)cc(C)cc2C)C(=O)/C(=C/C2CCN(C(=O)SCC)C2)C1` (stereo not shown) [Compound P47], the pest or weed control at 250 g/ha in assay [1] worked out at 70%; in the assay on Lolium perenne (LOLPE) [2], 60%; in the assay on Lolium perenne (LOLPE) [3], 60%; in assay [4] it was 50%; in assay [5], 30%; in assay [6], 60%. Further, the figures for the pest or weed control at 250 g/ha in the assay with Avena fatua (AVEFA) [7] and with Avena fatua (AVEFA) [8] were 50% and 60%, respectively.
As to `Cc1cc(C)c(C2C(=O)CC(CC3CCS(=O)(=O)CC3)C2=O)c(C)c1` (stereo not shown) [Compound T7], the pest or weed control at 250 g/ha in assay [1] was found to be 100%; in the assay with Lolium perenne (LOLPE) [2], 80%; with Lolium perenne (LOLPE) [3], 80%; in assay [4], 90%; in assay [5], 70%; in assay [6] it was 100%. In addition, the values for the pest or weed control at 250 g/ha with Avena fatua (AVEFA) [7] and in the assay on Avena fatua (AVEFA) [8] were 50% and 90%, respectively.
Regarding `Cc1cc(C)c(C2C(=O)CC(CC3CCN(C(=O)C(C)(C)C)CC3)C2=O)c(C)c1` (stereo not shown) [Compound T79], the pest or weed control at 250 g/ha in assay [1] worked out at 60%; in the assay with Lolium perenne (LOLPE) [2] it was 90%; in the assay on Lolium perenne (LOLPE) [3], 60%; in assay [4], 70%; in assay [5], 60%; in assay [6], 60%. Moreover, the pest or weed control at 250 g/ha in the assay on Avena fatua (AVEFA) [7] is 20%; in the assay on Avena fatua (AVEFA) [8], 80%.
As for `CON1CCC(CC2CC(OC(C)=O)=C(c3c(C)cc(C)cc3C)C2=O)CC1` (stereo not shown) [Compound P50], the pest or weed control at 250 g/ha (in assay [1]; with Lolium perenne (LOLPE) [2]; in the assay with Lolium perenne (LOLPE) [3]; in assay [4]; in assay [5]; in assay [6]) was 100% throughout. The pest or weed control at 250 g/ha with Avena fatua (AVEFA) [7] and in the assay on Avena fatua (AVEFA) [8] was 100% each time.
`Cc1cc(C)c(C2C(=O)CC(CC3CCN(C(=O)c4cccs4)C3)C2=O)c(C)c1` (stereo not shown) [Compound T146]: the pest or weed control at 250 g/ha in assay [1] was 80%; in the assay with Lolium perenne (LOLPE) [2], 90%; in the assay with Lolium perenne (LOLPE) [3] it was 80%; in assay [4], 70%; in assay [5], 70%; in assay [6], 70%. The pest or weed control at 250 g/ha in the assay with Avena fatua (AVEFA) [7] came to 50%; in the assay on Avena fatua (AVEFA) [8], 90%.
